Experimental data taken from publication PMC9072246 (Acta Pharmaceutica Sinica. B, 2021).
Structures can show the parent of a compound that is named as a salt.

Assays:
[1] = In vivo pharmacokinetic after oral administration; parameters: species or system SD rats
[2] = In vitro drug release by dialysis method; type: physicochemical; details: pH 7.4 PBS, after 3 h
[3] = Drug absorption in rat small intestine; type: in vivo; details: SD rats, intragastric 5 mg/kg DOX equivalent, 2 h, CLSM

Frel, relative bioavailability ([1]; SD rats, oral, 30 mg/kg DOX equivalent, relative to DOX): 100%
AUC ([1]; SD, rat, plasma, po, 30 mg/kg): 4000 ± 20 ng·h/mL
Cmax ([1]; SD, rat, plasma, po, 30 mg/kg): 160 ± 10 ng/mL
MRT ([1]; SD, rat, plasma, po, 30 mg/kg): 24.6 ± 0.34 h
Tmax ([1]; SD, rat, plasma, po, 30 mg/kg): 1 h
concentration at 1 h ([1]; SD, rat, plasma, po, 30 mg/kg): 160 ng/mL
concentration at 8 h ([1]; SD, rat, plasma, po, 30 mg/kg): 130 ng/mL
half-life ([1]; SD, rat, plasma, po, 30 mg/kg): 12.6 ± 0.58 h
cumulative release amount of DOX [2]: 90%
DOX fluorescence signal in small intestine tissue [3]: almost no red fluorescence signal
SMILES: COc1cccc2c1C(=O)c1c(O)c3c(c(O)c1C2=O)C[C@@](O)(C(=O)CO)C[C@@H]3O[C@H]1C[C@H](N)[C@H](O)[C@H](C)O1 [DOX, doxorubicin hydrochloride]
